Where two headings read alike, the source gives them in different places.
Legend:
OXA-10 = target: T1, OXA-10 (Pseudomonas aeruginosa, UniProt P14489); conditions: cited from earlier work
T1 construct: made in house

[1] = system: NDM-1-producing Klebsiella pneumoniae clinical isolates; experiment: Antimicrobial susceptibility testing, MIC by agar dilution; assay type: cell-based; conditions: antibiotic alone; for MIC: Klebsiella pneumoniae, strain B64, Kp, read-out: Cef/MEM MIC
Protocol: (§1) Minimal inhibitory concentration (MIC) values were determined by the agar dilution method and interpreted using published guidelines described by EUCAST/CLSI.[57] All reported MIC values are within ±1 log2 dilution of the reference MIC values.

[2] = system: NDM-1-producing Escherichia coli clinical isolates; experiment: as above; assay type: cell-based; conditions: antibiotic alone; for MIC: Escherichia coli, strain S117, Ec, read-out: Cef/MEM MIC
Protocol: as §1

[3] = system: six NDM-1-producing clinical isolates of Escherichia coli and Klebsiella pneumoniae; experiment: Antimicrobial susceptibility testing, MIC, summary over six clinical isolates; assay type: cell-based; conditions: read-out: MIC in the absence of VNRX-5133; all six NDM-1-producing isolates
Protocol: as §1

CphA = target: T2, CphA (Aeromonas hydrophila, UniProt P26918); conditions: cited from earlier work
T2 construct: made in house

L1 [4] = target: T3, L1 (Stenotrophomonas maltophilia, UniProt P52700); conditions: cited from earlier work
T3 construct: made in house

L1 [5] = target: T3, L1; experiment: β-lactamase inhibition, fluorogenic FC5 hydrolysis assay; assay type: biochemical
NDM-1 = target: T4, NDM-1 (Klebsiella pneumoniae, UniProt C7C422); assay type: biochemical; conditions: pre-incubation 0-180 min; supports reversible inhibition
T4 construct: made in house
T4 sequence (C7C422 29-270, looked up, species assumed): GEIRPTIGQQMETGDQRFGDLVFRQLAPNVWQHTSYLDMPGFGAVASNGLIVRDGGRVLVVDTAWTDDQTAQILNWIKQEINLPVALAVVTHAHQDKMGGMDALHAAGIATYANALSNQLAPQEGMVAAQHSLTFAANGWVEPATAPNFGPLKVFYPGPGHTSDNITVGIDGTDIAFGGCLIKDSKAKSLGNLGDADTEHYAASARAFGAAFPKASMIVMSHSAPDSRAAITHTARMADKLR

T1 sequence (P14489 20-266, species assumed): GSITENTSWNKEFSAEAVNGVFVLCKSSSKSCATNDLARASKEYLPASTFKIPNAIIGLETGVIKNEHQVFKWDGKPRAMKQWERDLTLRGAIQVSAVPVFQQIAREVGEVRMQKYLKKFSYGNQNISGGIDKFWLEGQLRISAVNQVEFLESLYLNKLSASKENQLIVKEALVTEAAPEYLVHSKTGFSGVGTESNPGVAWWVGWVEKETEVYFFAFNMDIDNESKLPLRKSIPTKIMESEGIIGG
T3 sequence (P52700 34-290): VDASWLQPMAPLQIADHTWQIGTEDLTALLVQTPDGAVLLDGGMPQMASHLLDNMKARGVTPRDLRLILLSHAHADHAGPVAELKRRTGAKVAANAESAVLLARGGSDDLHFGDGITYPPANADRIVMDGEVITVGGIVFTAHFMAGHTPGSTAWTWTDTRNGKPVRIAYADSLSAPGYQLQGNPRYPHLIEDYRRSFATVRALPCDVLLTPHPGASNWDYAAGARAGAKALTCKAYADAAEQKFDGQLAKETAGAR
T2 sequence (P26918 28-254): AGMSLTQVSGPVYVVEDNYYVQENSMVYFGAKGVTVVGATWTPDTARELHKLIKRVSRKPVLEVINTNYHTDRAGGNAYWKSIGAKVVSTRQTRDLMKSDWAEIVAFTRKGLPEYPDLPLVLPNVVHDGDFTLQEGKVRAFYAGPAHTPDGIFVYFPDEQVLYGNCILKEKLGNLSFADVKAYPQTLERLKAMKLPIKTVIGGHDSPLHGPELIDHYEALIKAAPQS

| MIC [1] | Cef/MEM MIC ([1]; strain B68-1, Kp) | Cef/MEM MIC ([1]; strain IR43, Kp) | MIC [2] | Cef/MEM MIC ([2]; strain 91N, Ec) | Cef/MEM MIC ([2]; strain IR57, Ec) | MIC [3] | SMILES | other results |
| --- | --- | --- | --- | --- | --- | --- | --- | --- |
|  |  |  |  |  |  |  | O=C(O)C[C@@H]1CC[C@H](NC(=O)Cc2cccs2)B(O)O1 [vaborbactam] | IC50 (OXA-10; 100 mM aqueous sodium bicarbonate, read-out: IC50 OXA-10 (b)): > 400 µM; inhibition of OXA-10 (in words) (OXA-10): not inhibited; IC50 (OXA-10; without sodium bicarbonate, read-out: IC50 OXA-10): > 400 µM |
| > 64 µg/mL | >64 μg mL^–1 | >64 μg mL^–1 | > 64 µg/mL | >64 μg mL^–1 | >64 μg mL^–1 | > 64 µg/mL | CO/N=C(\C(=O)N[C@@H]1C(=O)N2C(C(=O)[O-])=C(C[N+]3(C)CCCC3)CS[C@H]12)c1csc(N)n1 [Cef, cefepime] |  |
|  |  |  |  |  |  |  | NCc1ccc(C(=O)N[C@H]2Cc3cccc(C(=O)O)c3OB2O)cc1 [CB2] | IC50 (CphA): > 100 µM; IC50 L1 (L1 [4]): not inhibited[41] |
| > 64 µg/mL | >64 μg mL^–1 | >64 μg mL^–1 | > 64 µg/mL | >64 μg mL^–1 | >64 μg mL^–1 | > 64 µg/mL | C[C@@H](O)[C@H]1C(=O)N2C(C(=O)O)=C(S[C@@H]3CN[C@H](C(=O)N(C)C)C3)[C@H](C)[C@H]12 [MEM, meropenem] |  |
|  |  |  |  |  |  |  | NCCN[C@H]1CC[C@H](CC(=O)N[C@H]2Cc3cccc(C(=O)O)c3OB2O)CC1 [VNRX-5133, (R)-3-(2-(trans-4-((2-Aminoethyl)amino)cyclohexyl)acetamido)-2-hydroxy-3,4-dihydro-2H-benzo[e][1,2]oxaborinine-8-carboxylic Acid] | inhibition of subclass B3 MBL L1 (in words) (L1 [5]): nor did it inhibit; IC50 (L1 [5]; B3 MBL, FC5): > 10 µM; effect of variation in pre-incubation time on IC50, NDM-1 (NDM-1): did not result in different IC50 values |
